Experiments:
Assay type in all cases: in vivo
[1] = test system: crabgrass (Digitaria sanguinalis); assay: Test B postemergence; details: 13 to 15 days
Procedure, shortened: (§1)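 Post-treatment, species sat 13–15 days under greenhouse conditions before visual scoring against controls, 0 (no effect) through 100 (complete control). Application preemergence to sown seeds or postemergence at 1- to 4-leaf stage, using a non-phytotoxic solvent/surfactant formulation.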

[2] = test system: cocklebur (Xanthium strumarium); assay: Test B postemergence; details: 13 to 15 days
Procedure, shortened: as §1

corn (Zea mays) [3] = assay: Test B postemergence; details: 13 to 15 days
Procedure, shortened: as §1

[4] = test system: velvetleaf (Abutilon theophrasti); assay: Test B postemergence; details: 13 to 15 days
Procedure, shortened: as §1

[5] = test system: lambsquarters (Chenopodium album); assay: Test B postemergence; details: 13 to 15 days
Procedure, shortened: as §1

[6] = test system: morning glory (Ipomoea hederacea); assay: Test B postemergence; details: 13 to 15 days
Procedure, shortened: as §1

[7] = test system: barnyardgrass (Echinochloa crus-galli); assay: Test B postemergence; details: 13 to 15 days
Procedure, shortened: as §1

[8] = test system: Surinam grass (Brachiaria decumbens); assay: Test B postemergence; details: 13 to 15 days
Procedure, shortened: as §1

[9] = test system: wheat (Triticum aestivum); assay: Test B postemergence; details: 13 to 15 days
Procedure, shortened: as §1

[10] = test system: blackgrass (Alopecurus myosuroides); assay: Test B postemergence; details: 13 to 15 days
Procedure, shortened: as §1

[11] = test system: pigweed (Amaranthus retroflexus); assay: Test B postemergence; details: 13 to 15 days
Procedure, shortened: as §1

wild oat (Avena fatua) = assay: Test B postemergence; details: 13 to 15 days
Procedure, shortened: as §1

[12] = test system: giant foxtail (Setaria faberii); assay: Test B postemergence; details: 13 to 15 days
Procedure, shortened: as §1

[13] = test system: crabgrass (Digitaria sanguinalis); assay: Test B preemergence; details: scale 0 to 100, 0 no effect, 100 complete control
Procedure, shortened: as §1

[14] = test system: cocklebur (Xanthium strumarium); assay: Test B preemergence; details: scale 0 to 100, 0 no effect, 100 complete control
Procedure, shortened: as §1

corn (Zea mays) [15] = assay: Test B preemergence; details: scale 0 to 100, 0 no effect, 100 complete control
Procedure, shortened: as §1

[16] = test system: velvetleaf (Abutilon theophrasti); assay: Test B preemergence; details: scale 0 to 100, 0 no effect, 100 complete control
Procedure, shortened: as §1

[17] = test system: lambsquarters (Chenopodium album); assay: Test B preemergence; details: scale 0 to 100, 0 no effect, 100 complete control
Procedure, shortened: as §1

[18] = test system: morning glory (Ipomoea hederacea); assay: Test B preemergence; details: scale 0 to 100, 0 no effect, 100 complete control
Procedure, shortened: as §1

[19] = test system: barnyardgrass (Echinochloa crus-galli); assay: Test B preemergence; details: scale 0 to 100, 0 no effect, 100 complete control
Procedure, shortened: as §1

[20] = test system: Surinam grass (Brachiaria decumbens); assay: Test B preemergence; details: scale 0 to 100, 0 no effect, 100 complete control
Procedure, shortened: as §1

[21] = test system: pigweed (Amaranthus retroflexus); assay: Test B preemergence; details: scale 0 to 100, 0 no effect, 100 complete control
Procedure, shortened: as §1

[22] = test system: giant foxtail (Setaria faberii); assay: Test B preemergence; details: scale 0 to 100, 0 no effect, 100 complete control
Procedure, shortened: as §1

rice (Oryza saliva) = assay: Test C flooded paddy test
Procedure, shortened: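 Flooded paddy, 2-leaf stage at treatment. Readout: visual % control vs untreated, 0–100, at 12–14 d in greenhouse.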

[23] = Rate 125 g/ha, scale 0 (no effect) to 100 (complete control)
[24] = Rate 500 g/ha, scale 0 to 100, 0 is no effect, 100 is complete control

CC(C)(C)c1ccn(C2SCN(c3cccc(C(F)(F)F)c3)C2=O)n1 (centres unmarked) [Compound 1]
40: Plant response rating, Crabgrass [1, 24] | Plant response rating, Cocklebur ([14]; Preemergence, Rate 500 g/ha) | Plant response rating, Morningglory ([18]; Preemergence, Rate 500 g/ha)
60: Plant response rating, Cocklebur [2, 23] | Plant response rating, Corn (corn (Zea mays) [3]; [24]) | Plant response rating, Velvetleaf [4, 24] | Plant response rating, Foxtail, Giant [12, 24]
80: Plant response rating, Cocklebur [2, 24]
0: Plant response rating, Crabgrass [1, 23] | Plant response rating, Corn (corn (Zea mays) [3]; [23]) | Plant response rating, Barnyardgrass [7, 23] | Plant response rating, Surinam grass [8, 23] | Plant response rating, Surinam grass [8, 24] | Plant response rating, Wheat [9, 23] | Plant response rating, Blackgrass [10, 23] | Plant response rating, Blackgrass [10, 24] | Plant response rating, Wild Oat (wild oat (Avena fatua); [23]) | Plant response rating, Wild Oat (wild oat (Avena fatua); [24]) | Plant response rating, Crabgrass ([13]; preemergence, Rate 125 g/ha) | Plant response rating, Cocklebur ([14]; preemergence, Rate 125 g/ha) | Plant response rating, Corn (corn (Zea mays) [15]; preemergence, Rate 125 g/ha) | Plant response rating, Velvetleaf ([16]; preemergence, Rate 125 g/ha) | Plant response rating, Surinam grass ([20]; Preemergence, Rate 500 g/ha) | Plant response rating, Surinam grass ([20]; preemergence, Rate 125 g/ha) | Rice plant response rating (rice (Oryza saliva); Flooded Paddy, Rate 250 g/ha, scale 0 to 100, 0 no effect, 100 complete control) | Plant response rating, Rice (rice (Oryza saliva); flooded paddy test, Rate 62 g/ha, scale 0 to 100 (0 no effect, 100 complete control)) | Plant response rating, Rice (rice (Oryza saliva); flooded paddy test, Rate 125 g/ha, scale 0 to 100 (0 no effect, 100 complete control))
50: Plant response rating, Velvetleaf [4, 23] | Plant response rating, Morningglory [6, 23] | Plant response rating, Barnyardgrass [7, 24] | Plant response rating, Barnyardgrass ([19]; preemergence, Rate 125 g/ha) | Plant response rating, Foxtail, Giant ([22]; preemergence, Rate 125 g/ha) | Plant response rating, Rice (rice (Oryza saliva); Flooded Paddy, Rate 500 g/ha, scale 0 to 100)
100: Plant response rating, Lambsquarters [5, 24] | Plant response rating, Morningglory [6, 24] | Plant response rating, Pigweed [11, 24] | Plant response rating, Crabgrass ([13]; Preemergence, Rate 500 g/ha) | Plant response rating, Lambsquarters ([17]; Preemergence, Rate 500 g/ha) | Plant response rating, Lambsquarters ([17]; preemergence, Rate 125 g/ha) | Plant response rating, Barnyardgrass ([19]; Preemergence, Rate 500 g/ha) | Plant response rating, Pigweed ([21]; Preemergence, Rate 500 g/ha) | Plant response rating, Pigweed ([21]; preemergence, Rate 125 g/ha) | Plant response rating, Foxtail, Giant ([22]; Preemergence, Rate 500 g/ha)
90: Plant response rating, Lambsquarters [5, 23] | Plant response rating, Pigweed [11, 23]
20: Plant response rating, Corn (corn (Zea mays) [15]; Preemergence, Rate 500 g/ha) | Plant response rating, Morningglory ([18]; preemergence, Rate 125 g/ha)
30: Plant response rating, Wheat [9, 24] | Plant response rating, Foxtail, Giant [12, 23] | Plant response rating, Velvetleaf ([16]; Preemergence, Rate 500 g/ha)

Reference: patent publication US7138361B2, “Herbicidal heterocycles” (E. I. du Pont de Nemours and Company, priority 2000, dated 2006)
